According to PMC11995724, “Antibiotic target discovery by integrated phenotypic and activity-based profiling of electrophilic fragments” (Cell chemical biology, 2025):
Where a name gives a salt, the structure may show the parent alone.

Experiment: in vitro
Details: human, hek293t cells

Compound	viability at 48 h, 25 µM [%]
O=C(CCl)NCC(c1nccs1)N1CCCC1 (stereo not drawn) [6-D11, 2-chloro-N-[2-(pyrrolidin-1-yl)-2-(1,3-thiazol-2-yl)ethyl]acetamide hydrochloride]	92.9
C=CC(=O)N1CCC(c2ccc(OC)c(F)c2)C1 (stereo not drawn) [3-K19, 1-[3-(3-fluoro-4-methoxyphenyl)pyrrolidin-1-yl]prop-2-en-1-one]	48.9
COc1ccc2nnc(CNC(=O)C(C)Cl)n2n1 (stereo not drawn) [7-J15, 2-chloro-N-({6-methoxy-[1,2,4]triazolo[4,3-b]pyridazin-3-yl}methyl)propanamide]	90.2
C=CC(=O)NCC1SCCS1 [1-C03, N-[(1,3-dithiolan-2-yl)methyl]prop-2-enamide]	87.6
CC(Cl)C(=O)N1CCN(C(=O)C(F)(F)F)C2(CCCCC2)C1 (stereo not drawn) [7-K06, 2-chloro-1-[1-(2,2,2-trifluoroacetyl)-1,4-diazaspiro[5.5]undecan-4-yl]propan-1-one]	74
C=CC(=O)NCc1ccc(C(=O)N2CCC(C#N)CC2)cc1 [3-P05, N-{[4-(4-cyanopiperidine-1-carbonyl)phenyl]methyl}prop-2-enamide]	46.3
Cc1cccc(C)c1NC(=O)CCl [5-P20, 2-chloro-N-(2,6-dimethylphenyl)acetamide]	112
CC(Cl)C(=O)NCCc1nc2cc(F)ccc2s1 (stereo not drawn) [7-P11, 2-chloro-N-[2-(5-fluoro-1,3-benzothiazol-2-yl)ethyl]propanamide]	89.1
C=CC(=O)N1CCCc2c(OCC(N)=O)cccc21 [3-D22, 2-{[1-(prop-2-enoyl)-1,2,3,4-tetrahydroquinolin-5-yl]oxy}acetamide]	95.2
c1nc(N2CCSSCC2)c2c3c(sc2n1)CCCC3 [10-M22, 3-(1,2,5-dithiazepan-5-yl)-8-thia-4,6-diazatricyclo[7.4.0.0,2,7]trideca-1(9),2,4,6-tetraene]	78.3
CC(Cl)C(=O)NCc1nn(-c2ccccc2)c2c1CCC2 (stereo not drawn) [7-P05, 2-chloro-N-({1-phenyl-1H,4H,5H,6H-cyclopenta[c]pyrazol-3-yl}methyl)propanamide]	116
CC(Cl)C(=O)N(C)Cc1ncc(C2CC2)o1 (stereo not drawn) [5-B22, 2-chloro-N-[(5-cyclopropyl-1,3-oxazol-2-yl)methyl]-N-methylpropanamide]	66.9
CC(Cl)C(=O)N(CCc1ccc(F)cc1F)C(C)C (stereo not drawn) [6-D18, 2-chloro-N-[2-(2,4-difluorophenyl)ethyl]-N-(propan-2-yl)propanamide]	101
Cc1ccc(NC(=O)NC(=O)C(C)Cl)c(C)c1 (stereo not drawn) [6-J04, 3-(2-chloropropanoyl)-1-(2,4-dimethylphenyl)urea]	96.6
C=CC(=O)N1CCC(NC(=O)Nc2ccccc2OC)CC1 [1-K13, 3-(2-methoxyphenyl)-1-[1-(prop-2-enoyl)piperidin-4-yl]urea]	106
O=C(CCl)c1ccc(F)c(F)c1 [10-L13, 2-chloro-1-(3,4-difluorophenyl)ethan-1-one]	95.7
O=C(CCl)N(Cc1ccc(F)cc1)C1CCCCC1 [4-I13, 2-chloro-N-cyclohexyl-N-[(4-fluorophenyl)methyl]acetamide]	0.726
CC(Cl)C(=O)Nc1ccc(S(=O)(=O)N2CCCC2)cc1 (stereo not drawn) [6-M13, 2-chloro-N-[4-(pyrrolidine-1-sulfonyl)phenyl]propanamide]	117
CC(Cl)C(=O)c1ccc(Cl)cc1 (stereo not drawn) [10-O04, 2-chloro-1-(4-chlorophenyl)propan-1-one]	106
CC(Cl)C(=O)NC1CCCc2c1cnn2Cc1ccccc1 (stereo not drawn) [7-G13, N-(1-benzyl-4,5,6,7-tetrahydro-1H-indazol-4-yl)-2-chloropropanamide]	87.2
C=CC(=O)NCc1ccc(N2CC(C)CS2(=O)=O)cc1 (stereo not drawn) [3-J19, N-{[4-(4-methyl-1,1-dioxo-1lambda6,2-thiazolidin-2-yl)phenyl]methyl}prop-2-enamide]	95.4
O=C(CCl)Nc1ncc(Cc2ccccc2Cl)s1 [4-P07, 2-chloro-N-{5-[(2-chlorophenyl)methyl]-1,3-thiazol-2-yl}acetamide]	-0.245
Cc1cc(C(=O)O)ccc1N1C(=O)C=CC1=O [10-G22, 4-(2,5-dioxo-2,5-dihydro-1H-pyrrol-1-yl)-3-methylbenzoic acid]	107
C=CC(=O)Nc1ccc(S(=O)(=O)N(C)C)c(C)c1 [2-E06, N-[4-(dimethylsulfamoyl)-3-methylphenyl]prop-2-enamide]	78.7
C=CC(=O)NCCC(=O)N1CCN(c2nc(C)cs2)C(C)C1 (stereo not drawn) [2-F06, N-{3-[3-methyl-4-(4-methyl-1,3-thiazol-2-yl)piperazin-1-yl]-3-oxopropyl}prop-2-enamide]	92.9
CC(Cl)C(=O)N1CCN(CC(F)(F)F)CC1C(C)C (stereo not drawn) [7-C22, 2-chloro-1-[2-(propan-2-yl)-4-(2,2,2-trifluoroethyl)piperazin-1-yl]propan-1-one]	91.5
Cc1nn(C)c(C)c1C=C(C#N)C(=O)Nc1ccc2c(c1)OCCO2 [9-D03, 2-cyano-N-(2,3-dihydro-1,4-benzodioxin-6-yl)-3-(1,3,5-trimethyl-1H-pyrazol-4-yl)prop-2-enamide]	112

Compound	viability at 48 h, 25 µM [%]
O=C1C=CC(=O)N1c1ccc(F)cc1 [10-M10, 1-(4-fluorophenyl)-2,5-dihydro-1H-pyrrole-2,5-dione]	68.4
N#CC1=C(N2CCOCC2)SC(c2cccc([N+](=O)[O-])c2)NC1=O (stereo not drawn) [9-L19, 6-(morpholin-4-yl)-2-(3-nitrophenyl)-4-oxo-3,4-dihydro-2H-1,3-thiazine-5-carbonitrile]	129
C=CC(=O)NCCC(=O)N1CCN(c2ccc(C#N)cc2F)CC1 [3-D07, N-{3-[4-(4-cyano-2-fluorophenyl)piperazin-1-yl]-3-oxopropyl}prop-2-enamide]	56.6
C=CC(=O)N1CCc2cc(C(N)=O)ccc21 [1-P03, 1-(prop-2-enoyl)-2,3-dihydro-1H-indole-5-carboxamide]	172
CC(C)CN(C(=O)CCl)C1CC1 [5-D14, 2-chloro-N-cyclopropyl-N-(2-methylpropyl)acetamide]	1.19
C=CC(=O)N1CCC(C(=O)N(CC)Cc2occc2C)CC1 [2-L08, N-ethyl-N-[(3-methylfuran-2-yl)methyl]-1-(prop-2-enoyl)piperidine-4-carboxamide]	88.8
C=CC(=O)NCCS(=O)(=O)N1CCOCC1 [2-E14, N-[2-(morpholine-4-sulfonyl)ethyl]prop-2-enamide]	94.6
CCCCNC(=O)C(C#N)=Cc1ccc(Cl)cc1Cl [9-O07, N-butyl-2-cyano-3-(2,4-dichlorophenyl)prop-2-enamide]	69
CC(Cl)C(=O)N1CCOC(c2ccc(Cl)s2)C1 (stereo not drawn) [6-N07, 2-chloro-1-[2-(5-chlorothiophen-2-yl)morpholin-4-yl]propan-1-one]	111
O=C1C=CC(=O)N1c1ccccc1F [10-D17, 1-(2-fluorophenyl)-2,5-dihydro-1H-pyrrole-2,5-dione]	90.3
O=C(CCl)Nc1sc2c(c1C(=O)c1ccccc1)CCCC2 [4-A06, N-(3-benzoyl-4,5,6,7-tetrahydro-1-benzothiophen-2-yl)-2-chloroacetamide]	0.213
O=C(CCl)c1ccccn1 [10-J03, 2-chloro-1-(pyridin-2-yl)ethan-1-one]	94.4
CCOc1ccccc1NC(=O)C(C#N)=Cc1c(F)cccc1F [8-G21, 2-cyano-3-(2,6-difluorophenyl)-N-(2-ethoxyphenyl)prop-2-enamide]	78.1
COc1ccc(C=C(C#N)C(=O)Nc2ccc([N+](=O)[O-])cc2)cc1 [8-C05, 2-cyano-3-(4-methoxyphenyl)-N-(4-nitrophenyl)prop-2-enamide]	81.5
O=C(CCl)NCc1ccc(OC(F)(F)F)cc1 [6-G08, 2-chloro-N-{[4-(trifluoromethoxy)phenyl]methyl}acetamide]	1.3
C=CC(=O)N1CCC(C(=O)NCc2cccc(Cl)c2F)CC1 [3-N12, N-[(3-chloro-2-fluorophenyl)methyl]-1-(prop-2-enoyl)piperidine-4-carboxamide]	87.6
CCn1ncc(C(=O)CCl)n1 [10-E13, 2-chloro-1-(2-ethyl-2H-1,2,3-triazol-4-yl)ethan-1-one]	87.2
N#CC(=Cc1cccc(F)c1)C(=O)NCc1ccccc1 [9-K09, N-benzyl-2-cyano-3-(3-fluorophenyl)prop-2-enamide]	109
N#CC(=Cc1c(F)cccc1Cl)C(=O)Nc1ccc(C(=O)O)cc1 [9-P06, 4-[3-(2-chloro-6-fluorophenyl)-2-cyanoprop-2-enamido]benzoic acid]	142
Cc1cccc(C=C(C#N)C(=O)NC(C)C)c1 [8-J07, 2-cyano-3-(3-methylphenyl)-N-(propan-2-yl)prop-2-enamide]	94.3
N#CC(=Cc1cc(F)ccc1F)C(=O)Nc1ccc2c(c1)OCCO2 [8-I10, 2-cyano-3-(2,5-difluorophenyl)-N-(2,3-dihydro-1,4-benzodioxin-6-yl)prop-2-enamide]	53.5
CCc1ccc(C(=O)CCl)cc1 [10-F18, 2-chloro-1-(4-ethylphenyl)ethan-1-one]	1.07
CC(Cl)C(=O)N1CCN(C(C)c2cccc(C#N)c2)CC1 (stereo not drawn) [7-P22, 3-{1-[4-(2-chloropropanoyl)piperazin-1-yl]ethyl}benzonitrile]	66.4
C=CC(=O)NC1CCN(c2nnnn2C)CC1 [3-G06, N-[1-(1-methyl-1H-1,2,3,4-tetrazol-5-yl)piperidin-4-yl]prop-2-enamide]	79.8
COCC(C)NC(=O)C(C#N)=Cc1ccc(F)c(C)c1 (stereo not drawn) [9-H09, 2-cyano-3-(4-fluoro-3-methylphenyl)-N-(1-methoxypropan-2-yl)prop-2-enamide]	108
C=CC(=O)N1CCOC2(CCCC2)C1 [3-I11, 1-{6-oxa-9-azaspiro[4.5]decan-9-yl}prop-2-en-1-one]	44.3
c1ccc(CSSCc2ccccc2)cc1 [10-O21, [(benzyldisulfanyl)methyl]benzene]	100
